{
  "source": "paper PMC7144209",
  "about": "“Design, synthesis and anticancer activity of naphthoquinone derivatives” (Journal of Enzyme Inhibition and Medicinal Chemistry, 2020)",
  "key": {"[1]": {"system": "MGC-803", "experiment": "MTT cell viability assay, MGC-803 cells", "format": "cell-based", "settings": "n = 3", "protocol": "MGC-803, SGC-7901, U87 and SMMC-7721 cell lines were cultured in DMEM supplemented with 10% foetal bovine serum, 100 IU/mL penicillin/streptomycin. The cells were incubated in an atmosphere containing 5% CO2 at 37 °C.\nMGC-803, SGC-7901, U87 and SMMC-7721 cells were plated in 96-well plate at 7000 per well. Cells were incubated with the different concentrations of the compounds for 48 h. Subsequently, MTT (0.5 mg/mL) were used to test the cell viability, then 150 μL DMSO was added to each well after cells were incubated for 4 h and the absorbance was measured at 492 nm."}, "[2]": {"experiment": "Metabolic stability assay in human liver microsomes", "format": "in vitro ADME", "protocol": "To initially evaluate the stability of compound 12, we then tested the liver microsome stability of this compound. The Mean % Parent Remaining of compound 12 in metabolic stability test were 100, 95, 85, 80, and 70 at 0, 15, 30, 45, and 60 min, respectively."}, "[3]": {"system": "SGC-7901 cells", "experiment": "Acridine orange (AO) staining of acidic vesicles", "format": "cell-based, human", "settings": "SGC-7901, 1, 2, and 4 μM, 48 h", "protocol": "PH-sensitive Acridine orange (AO) was used to label acidic vesicles. Human gastric cancer cells were seeded in laser confocal dishes at 10,000/ml. After indicated treatment of compound 12 (1 μM, 2 μM, 4 μM) for 48 h, cells were stained with AO (1 μg/ml) for 15 min at the cell culture incubator. After the cells were washed by PBS, pictures were acquired under laser confocal microscope.\nAnother typical feature of autophagy is the accumulation of the acidic autophagic vacuoles (AVOs)[45]^,[46]. To verify the development of AVOs, Acridine Orange (AO) staining was used to examine whether the acidic vesicular organelles in SGC-7901 cells were increased. AO produces red fluorescence when it accumulates in acidic regions such as autophagy lysosomes and lysosomes and produces bright green fluorescence in the cytoplasm and the nucleus. […] GFP-LC3 indicating technique was also used to detect the autophagy at the same time. When autophagy is formed, multiple bright green fluorescent spots will form as the GFP-LC3 fusion protein can translate to autophagosome membrane. From Figure 6(C), compared to the blank control group, GFP-LC3 puncta were increased after cells treated with compound 12 (4 μM) meanwhile decreased after treated with compound 12 (4 μM) and 3-MA (500 μM)."}},
  "data": [
    {"smiles": "CC(C)=CCC(OC(=O)CCC(=O)Nc1ccc(Oc2ccccc2)cc1)C1=CC(=O)c2c(O)ccc(O)c2C1=O", "note": "(stereo not shown) [Compound 12, 1-(5,8-dihydroxy-1,4-dioxo-1,4-dihydronaphthalen-2-yl)-4-methylpent-3-en-1-yl-4-oxo-4-((4-phenoxyphenyl)amino)butanoate]", "values": [
      {"measurement": "IC50", "setting": "[1]; 48 h", "result": "4.1 ± 0.6", "unit": "µM"},
      {"measurement": "IC50", "setting": "[1]; Homo sapiens, MGC-803, 48 h", "result": 4.07, "unit": "µM"},
      {"measurement": "Mean % Parent Remaining", "setting": "[2]; 0 min", "result": 100, "unit": "%"},
      {"measurement": "Mean % Parent Remaining", "setting": "[2]; 15 min", "result": 95, "unit": "%"},
      {"measurement": "Mean % Parent Remaining", "setting": "[2]; 30 min", "result": 85, "unit": "%"},
      {"measurement": "Mean % Parent Remaining", "setting": "[2]; 45 min", "result": 80, "unit": "%"},
      {"measurement": "Mean % Parent Remaining", "setting": "[2]; 60 min", "result": 70, "unit": "%"},
      {"measurement": "microsomal CLint", "setting": "[2]; human, read-out: calculated clearance rate", "result": "> 110", "unit": "µL/min/mg"},
      {"measurement": "half-life", "setting": "[2]; human, read-out: half-life (t1/2)", "result": "> 60", "unit": "min"},
      {"measurement": "red fluorescently labelled acidic vesicles (AO staining)", "setting": "[3]", "result": "accumulated obviously"}
    ]}
  ]
}
